What all share (experiment): DTP human tumour cell line panel, 48 h
Assay [1] relates to SK-MEL-5.
In assay [2] the test system is SK-MEL-28.
Assay [3] relates to HOP-92.
For assay [4], the system named is NCI-H522.
Assay [5] deals with UO-31.
Assay [6] relates to SR.
Assay [7] deals with SW-620.
Assay [8] has as its system SK-MEL-2.
The subject of assay [9] is SK-OV-3.
Assay [10] concerns HL-60.
For assay [11], the system named is OVCAR-8.
Assay [12] relates to NCI/ADR-RES.
Assay [13] deals with NCI-H226.
For assay [14], the system named is DU-145.
In assay [15] the test system is T47D.
Assay [16] concerns MOLT-4.
The test system of assay [17] is MDA-MB-231.

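Briefly, cells in 96-well plates were exposed to five compound concentrations for 48 h, and endpoints were estimated by linear interpolation. Abbreviation: GI50, concentration required for 50% inhibition of growth.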 Activity calls are given as the source filed them. Cut-off read from the data, not from the text of the source: active = GI50 up to about 1.1 µM and inactive = higher. Where a SMILES comes first, the peptide text is derived from it. The star is where a group is joined. Boc = CC(C)(C)OC(=O)*

The GI50 is the concentration at which growth is held to half of that of the control.

Consider `Cc1c2c(n3c(nc4ccccc43)c1C#N)N(c1ccc(F)cc1)CC2`, for which the GI50 in [1], in [2], in [3], in assay [4], in [5] and in assay [6] was > 100 µM (inactive) throughout. Besides, the GI50 was > 100 µM (inactive) in [7]; > 100 µM (inactive) in [8]; 74.5 µM (inactive) in assay [9]; > 100 µM (inactive) in assay [10]; > 100 µM (inactive) in assay [11]; > 100 µM (inactive) in assay [12]. Further, the GI50 in [13] and in assay [14] was > 100 µM (inactive) each time.

For the molecule `Cn1c(=O)c2[nH]c(N=O)nc2n(C)c1=O`, the GI50 in [15], in [2], in assay [4], in [5], in assay [16] and in assay [7] was > 100 µM (inactive) throughout. The GI50 in assay [8], in assay [9], in assay [10], in assay [11], in assay [12] and in assay [13] was > 100 µM (inactive) each time. The GI50 in assay [14] and in assay [17] was > 100 µM (inactive) in each case.

`Cn1c(=O)oc2cc(C(=S)N3CCC(Cc4ccccc4)CC3)ccc21`: the GI50 is 51.4 µM (inactive) in [1]; > 100 µM (inactive) in assay [2]; 72.3 µM (inactive) in [6]; 48.1 µM (inactive) in [16]; > 100 µM (inactive) in assay [7]; > 100 µM (inactive) in assay [8]. Moreover, the GI50 in assay [9], in assay [10], in [11], in [12], in assay [13] and in [14] was > 100 µM (inactive) each time. Also, the GI50 in [17] is > 100 µM (inactive).

Regarding `CC(C)(C)OC(=O)NC(Cc1ccc(OCc2ccccc2)cn1)C(N)=O` (stereo not given), the GI50 in [1] was 26 µM (inactive); in assay [2] it was > 100 µM (inactive); in assay [3] it was > 100 µM (inactive); in assay [4], 80 µM (inactive); in assay [5] it was 82.6 µM (inactive); in assay [6] it was > 100 µM (inactive). Besides, the GI50 in [16] is > 10 µM (inactive); in assay [7] it was > 100 µM (inactive); in assay [10], > 100 µM (inactive); in assay [11], > 100 µM (inactive); in [12] it was 89.9 µM (inactive); in [13] it was 97.3 µM (inactive). Further, the GI50 in assay [14] and in [17] was > 100 µM (inactive) each time.

Regarding `CCOC(=O)c1nc2ccc(C(F)(F)F)cc2nc1Nc1ccc(F)cc1`, the GI50 in [1] is > 10 µM (inactive); in [15], > 100 µM (inactive); in assay [2], > 100 µM (inactive); in [3], 19 µM (inactive); in assay [4] it was 54.6 µM (inactive); in assay [5] it was 49.5 µM (inactive). The GI50 is > 100 µM (inactive) in assay [16]; > 100 µM (inactive) in assay [7]; > 100 µM (inactive) in [8]; > 100 µM (inactive) in assay [9]; > 100 µM (inactive) in assay [10]; 47.6 µM (inactive) in assay [11]. Moreover, the values for the GI50 in assay [12], in assay [14] and in [17] were > 100 µM (inactive), > 100 µM (inactive) and > 10 µM (inactive), respectively.

On to `CC(SC(=S)N1CCCC1)C(=O)Nc1nnc(-c2ccc(Cl)cc2)o1` (stereo not given), for which the GI50 in [1] is 29.5 µM (inactive); in assay [15], 48.8 µM (inactive); in assay [2], 46.7 µM (inactive); in [3] it was 65.8 µM (inactive); in [5], 19.2 µM (inactive); in assay [7] it was 36.6 µM (inactive). Further, the GI50 in assay [8] was 30.5 µM (inactive); in assay [9] it was 52.7 µM (inactive); in assay [10] it was < 0.01 µM (active); in assay [11], 40.1 µM (inactive); in assay [12] it was 22.8 µM (inactive); in [13], 40.3 µM (inactive). Moreover, the GI50 is 44.2 µM (inactive) in [14] and 40 µM (inactive) in assay [17].

Consider `COc1cc(C2SCC(=O)N2c2cccc(Cl)c2)cc(OC)c1OC` (stereo not given), for which the GI50 is > 100 µM (inactive) in assay [1]; > 100 µM (inactive) in [2]; 31.2 µM (inactive) in [3]; 21.2 µM (inactive) in assay [4]; 58.2 µM (inactive) in assay [5]; 28.4 µM (inactive) in [6]. Further, the GI50 in assay [16] was 37.2 µM (inactive); in [7], > 100 µM (inactive); in assay [8] it was > 100 µM (inactive); in assay [9] it was > 100 µM (inactive); in assay [10] it was 35.3 µM (inactive); in [11], > 100 µM (inactive). Moreover, the GI50 was 71.9 µM (inactive) in [12], > 100 µM (inactive) in assay [13], 63.7 µM (inactive) in assay [14] and > 100 µM (inactive) in assay [17].

As for `COC(=O)[C@H](COC(C)(C)C)NC(=O)N[C@H](C)c1ccccc1`, the GI50 in [1], in [2], in assay [3], in [4], in assay [5] and in [6] was > 100 µM (inactive) in each case. Moreover, the GI50 in assay [16], in [7], in assay [8], in [9], in [10] and in assay [11] was > 100 µM (inactive) each time. Also, the GI50 in assay [12], in assay [13], in assay [14] and in assay [17] was > 100 µM (inactive) each time.

Take `COC(=O)c1cc(S(=O)(=O)NC2=NNC(C)CN2)c(S)cc1Cl` (stereo not given): the GI50 in [1] was 26.4 µM (inactive); in assay [2], 36.7 µM (inactive); in assay [4], 19.5 µM (inactive); in assay [5] it was 99.3 µM (inactive); in [6], 37.5 µM (inactive); in [16], 77.3 µM (inactive). Besides, the GI50 in [7] was 42.3 µM (inactive); in assay [8] it was 26 µM (inactive); in assay [9], > 100 µM (inactive); in assay [10] it was > 100 µM (inactive); in assay [11], 34.8 µM (inactive); in assay [12], 39.8 µM (inactive). For the same molecule, the results for the GI50 in assay [14] and in assay [17] were 78.9 µM (inactive) and > 100 µM (inactive), respectively.

`C=C(Cl)CN1c2ccccc2C=Cc2ccccc21`: the GI50 is 7.23 µM (inactive) in assay [1]; 16.9 µM (inactive) in [15]; 22.3 µM (inactive) in [3]; 21.6 µM (inactive) in [4]; 31.6 µM (inactive) in assay [5]; 18.7 µM (inactive) in assay [8]. The GI50 in assay [9] is 15.9 µM (inactive); in assay [11], 14.8 µM (inactive); in [12] it was > 100 µM (inactive); in assay [13], 27.5 µM (inactive); in assay [14], 29.7 µM (inactive); in [17] it was 14.7 µM (inactive).

Turning to `Cc1nnc2n1N=C(c1cc(F)c(Cl)cc1Cl)/C(=C/c1ccc(-c3ccc([N+](=O)[O-])cc3)o1)S2`, the GI50 in assay [1] was 56.9 µM (inactive); in [15] it was 28.6 µM (inactive); in assay [2], > 100 µM (inactive); in assay [3], > 100 µM (inactive); in assay [4], 32.7 µM (inactive); in assay [5] it was 85.3 µM (inactive). Moreover, the GI50 is 34.2 µM (inactive) in assay [6]; 29.2 µM (inactive) in assay [16]; 39.6 µM (inactive) in assay [7]; 42.6 µM (inactive) in assay [8]; > 100 µM (inactive) in assay [9]; 46.3 µM (inactive) in assay [10]. In addition, the GI50 is 35.7 µM (inactive) in assay [11] and > 100 µM (inactive) in assay [12].

On to `COC(=O)C(Cc1c[nH]c2ccccc12)NC(=O)C(Cc1c[nH]c2ccccc12)NC(=O)C(Cc1c[nH]c2ccccc12)NC(=O)C(Cc1c[nH]c2ccccc12)NC(=O)C(Cc1c[nH]c2ccccc12)NC(=O)C(Cc1c[nH]c2ccccc12)NC(=O)C(Cc1c[nH]c2ccccc12)NC(=O)OC(C)(C)C` (stereo not given) (Boc-WWWWWWW-OMe; configuration not given here), for which the GI50 was 20.9 µM (inactive) in assay [1]; > 100 µM (inactive) in [15]; 35.6 µM (inactive) in [2]; 54.6 µM (inactive) in assay [4]; 44.9 µM (inactive) in [5]; 48 µM (inactive) in [6]. Moreover, the GI50 was 40.6 µM (inactive) in assay [16]; > 100 µM (inactive) in assay [7]; 17.1 µM (inactive) in assay [8]; 41.7 µM (inactive) in [10]; > 100 µM (inactive) in assay [11]; 40.9 µM (inactive) in assay [13]. In addition, the GI50 is 64 µM (inactive) in assay [14] and > 100 µM (inactive) in [17].

`C[C@@H](Oc1ccc(Oc2cnc3ccc(Cl)cc3n2)cc1)C(=O)O` [R(+)XK469]: the GI50 in assay [1] is 67.5 µM (inactive); in assay [15] it was > 100 µM (inactive); in assay [2], > 100 µM (inactive); in assay [3], > 100 µM (inactive); in assay [4], 19.1 µM (inactive); in assay [5] it was > 100 µM (inactive). For the same molecule, the GI50 in assay [6] was > 100 µM (inactive); in assay [16], > 100 µM (inactive); in assay [7], 85.3 µM (inactive); in assay [8], > 100 µM (inactive); in assay [9], > 100 µM (inactive); in assay [10], 37.1 µM (inactive). In addition, the GI50 in assay [11], in assay [12] and in [14] was > 100 µM (inactive) each time.

These data come from ChEMBL document CHEMBL1201862, “PubChem BioAssay data set” (2004).
